According to patent US12448394B2, “Heterocyclic pyrazole derivatives as type III receptor tyrosine kinase inhibitors” (DEVELOPMENT CENTER FOR BIOTECHNOLOGY, priority 2019, dated 2025):

Experiments:
[1] = test system: phosphorylation of FLT3 and its down-stream effector STAT5; experiment: Western blotting of p-FLT3 and p-STAT5 in MV4-11 cells; type: cell-based; conditions: Homo sapiens; at 30 nM treatment, 3 hours, FLT3-ITD positive MV4-11 leukemia cells; read-out: inhibition activity against phosphorylation of FLT3 and its down-stream effector STAT5
How it was run: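 MV4-11 cells held overnight in IMDM with 0.1% FBS, then 3 million cells treated with compound for 3 h. Whole lysates immunoblotted for p-FLT3 (Tyr-591), p-STAT5 (Tyr-694) and actin. Band intensities at 30 nM compared to DMSO control; % inhibition = (1 − relative intensity) × 100.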

FLT3 kinase = target: T1, FLT3 kinase (Homo sapiens, UniProt P36888); experiment: FLT3 kinase assay (AlphaScreen); type: biochemical; conditions: read-out: Ranking of IC50 values, FLT3
T1 construct: purchased SignalChem
T1 sequence (P36888 27-993): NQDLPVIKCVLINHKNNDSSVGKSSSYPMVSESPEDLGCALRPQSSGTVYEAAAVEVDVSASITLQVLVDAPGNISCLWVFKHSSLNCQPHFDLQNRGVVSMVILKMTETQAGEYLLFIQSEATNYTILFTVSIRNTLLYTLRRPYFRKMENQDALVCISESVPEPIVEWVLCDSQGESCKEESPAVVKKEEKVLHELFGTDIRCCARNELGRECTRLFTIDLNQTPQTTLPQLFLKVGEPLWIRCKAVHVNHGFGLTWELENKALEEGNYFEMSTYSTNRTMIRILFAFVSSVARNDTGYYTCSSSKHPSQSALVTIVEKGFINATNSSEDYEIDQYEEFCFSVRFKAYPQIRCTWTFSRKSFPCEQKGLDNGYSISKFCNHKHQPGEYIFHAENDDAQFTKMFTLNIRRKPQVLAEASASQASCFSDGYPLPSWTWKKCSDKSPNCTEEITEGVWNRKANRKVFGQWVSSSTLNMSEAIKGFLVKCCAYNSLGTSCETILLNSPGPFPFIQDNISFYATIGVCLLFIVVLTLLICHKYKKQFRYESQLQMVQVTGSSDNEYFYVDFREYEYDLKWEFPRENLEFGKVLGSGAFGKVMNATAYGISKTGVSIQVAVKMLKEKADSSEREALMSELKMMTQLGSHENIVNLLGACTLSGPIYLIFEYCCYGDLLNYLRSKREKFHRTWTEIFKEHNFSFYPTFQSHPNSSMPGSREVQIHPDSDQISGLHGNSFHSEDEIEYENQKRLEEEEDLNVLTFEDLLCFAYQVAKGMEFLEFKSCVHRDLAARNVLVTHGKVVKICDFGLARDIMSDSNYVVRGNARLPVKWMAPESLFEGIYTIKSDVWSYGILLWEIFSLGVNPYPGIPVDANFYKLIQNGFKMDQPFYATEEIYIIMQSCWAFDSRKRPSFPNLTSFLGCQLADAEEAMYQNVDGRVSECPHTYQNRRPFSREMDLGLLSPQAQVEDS
How it was run: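 AlphaScreen detection of biotin-poly(Glu4:Tyr1) phosphorylation by 1.5 ng recombinant FLT3 (10 μM ATP, pH 7.0 MOPS, 10 mM MgCl2; 30 °C, 30 min, EDTA quench). IC50 values derived from serially diluted compound tested in duplicate.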

[2] = test system: Molm-14 human acute myeloid leukemia cell with FLT3-ITD mutation; experiment: Molm-14 cell proliferation assay (CellTiter 96); type: cell-based; conditions: Homo sapiens; Molm-14 cells, 72 hours treatment, CellTiter96; read-out: anti-proliferation activity Molm-14 (FLT3-ITD), IC50 ranking
How it was run: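 Molm-14 (FLT3-ITD AML) cells in RPMI 1640 with 10% heat-inactivated FBS were seeded at 25000 cells/well, incubated overnight at 37° C, 5% CO2, then treated with increasing compound concentrations for 72 hours. Viability was read as absorbance at 490 nm after 2˜4 hours with CellTiter96 AQueous One reagent.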

Compound: Cn1ncc2ccc(-c3n[nH]c4c3Cc3sc(-c5ccc(N)nc5)cc3-4)cc21 [Compound 92, 5-(3-(1-methyl-1H-indazol-6-yl)-1,4-dihydro-thieno[2′,3′:4,5]cyclopenta [1,2-c]pyrazol-6-yl) pyridin-2-amine]
- inhibition at 0.03 µM [1]: > 50%
- IC50 (FLT3 kinase): < 1 nM
- IC50 [2]: < 30 nM

Compound: CN(C)Cc1ccc(-c2cc3c(s2)Cc2c(-c4ccc5cnn(C)c5c4)n[nH]c2-3)cc1 [Compound 94, N,N-dimethyl-1-(4-(3-(1-methyl-1H-indazol-6-yl)-1,4-dihydrothieno [2′,3′:4,5]cyclopenta [1,2-c]pyrazol-6-yl)phenyl)methanamine]
- inhibition at 0.03 µM [1]: > 50%
- IC50 (FLT3 kinase): < 1 nM
- IC50 [2]: < 30 nM
